Calls of active or inactive are those of the source. The rule behind the calls is not given here.
Columns and labels:
[1] = system: MDA-MB-231; test: Antiproliferative activity against human MDA-MB-231 cells assessed as reduction in cell viability incubated for 72 hrs by MTT assay; assay type: functional, cell-based; details: MDA-MB-231, 72 h
[2] = system: MDA-MB-231; test: Induction of NO release in human MDA-MB-231 cells assessed NO concentration by Griess reagent based assay; assay type: functional
[3] = system: 4T1; test: Antiproliferative activity against mouse 4T1 cells assessed as reduction in cell viability incubated for 72 hrs by MTT assay; assay type: functional, cell-based; details: 4T1, 72 h
[4] = Cytotoxicity against human MCF-10A cells assessed as reduction in cell viability incubated for 72 hrs by MTT assay; assay type: toxicity, cell-based
[5] = Selectivity index, ratio of IC50 for cytotoxicity against human MCF-10A cells to IC50 for antiproliferative activity against human MDA-MB-231 cells; assay type: toxicity, cell-based; details: MCF-10A cells versus MDA-MB-231 cells, read-out: Ratio IC50
[6] = system: MDA-MB-231; test: Antitumor activity against human MDA-MB-231 cells xenografted in nude mouse assessed as reduction in tumor size at 5 mg/kg, ip administered for 30 days; assay type: functional, organism-based; details: time 30.0 day
[7] = system: MDA-MB-231; test: Antitumor activity against human MDA-MB-231 cells xenografted in nude mouse assessed as reduction in tumor weight at 5 mg/kg, ip administered for 30 days; assay type: functional, organism-based; details: time 30.0 day
[8] = system: MDA-MB-231; test: Induction of ferroptosis in human MDA-MB-231 cells xenografted in nude mouse assessed as reduction in GPX4 level at 5 mg/kg, ip administered for 30 days by immunohistochemistry analysis; assay type: functional, organism-based; details: time 30.0 day

| IC50 [1] | IC50 [3] | Compound | Activity [2] | IC50 at 72 h [4] | selectivity ratio [5] | Activity [6] | Activity [7] | Activity [8] |
| --- | --- | --- | --- | --- | --- | --- | --- | --- |
| > 10 µM |  | CC[C@H]1O[C@]2(C)C(OC(=O)CCCC(=O)OCc3c(CSCCC(=O)O)no[n+]3[O-])[C@H](/C=C/C=C/C=C/c3oc(=O)cc(OC)c3C)O[C@]1(C)[C@H]2OC(C)=O (single isomer, unassigned) | 1.89 µM |  |  |  |  |  |
| 0.6 µM | 1.12 µM | CC[C@H]1O[C@@]2(C)[C@H](OC(C)=O)[C@@]1(C)O[C@@H](/C=C/C=C/C=C/c1oc(=O)cc(OC)c1C)[C@H]2OC(=O)CCC(=O)OCCCCCOc1no[n+]([O-])c1S(=O)(=O)c1ccccc1 | 4.6 µM | > 50 µM | > 83 |  |  |  |
| 4.75 µM | 4.56 µM | CC[C@H]1O[C@@]2(C)[C@H](OC(C)=O)[C@@]1(C)O[C@@H](/C=C/C=C/C=C/c1oc(=O)cc(OC)c1C)[C@@H]2OC(=O)CCCC(=O)OCc1c(-c2ccc(Br)cc2)no[n+]1[O-] | 2.65 µM | > 50 µM | > 10 |  |  |  |
|  |  | COc1cccc2c1C(=O)c1c(O)c3c(c(O)c1C2=O)C[C@@](O)(C(=O)CO)C[C@@H]3O[C@H]1C[C@H](N)[C@@H](O)[C@H](C)O1 |  |  |  | Active | Active | inactive |
| 9.93 µM |  | CC[C@H]1O[C@@]2(C)[C@H](OC(C)=O)[C@@]1(C)O[C@@H](/C=C/C=C/C=C/c1oc(=O)cc(OC)c1C)[C@@H]2OC(=O)CCCC(=O)OCc1c(-c2ccccc2)no[n+]1[O-] | 1.93 µM |  |  |  |  |  |
| 1.09 µM | 2.14 µM | O=S(=O)(c1ccccc1)c1no[n+]([O-])c1S(=O)(=O)c1ccccc1 | 8.06 µM | 3.8 µM | 3.1 |  |  |  |
| 3.28 µM | 5.56 µM | CC[C@H]1O[C@@]2(C)[C@H](OC(C)=O)[C@@]1(C)O[C@@H](/C=C/C=C/C=C/c1oc(=O)cc(OC)c1C)[C@H]2OC(=O)CCC(=O)OCCc1ccc(Oc2no[n+]([O-])c2S(=O)(=O)c2ccccc2)cc1 |  | > 50 µM | > 15 |  |  |  |
| 0.45 µM | 0.72 µM | CC[C@H]1O[C@@]2(C)[C@H](OC(C)=O)[C@@]1(C)O[C@@H](/C=C/C=C/C=C/c1oc(=O)cc(OC)c1C)[C@H]2OC(=O)CCC(=O)OCCCCCCOc1no[n+]([O-])c1S(=O)(=O)c1ccccc1 | 4.92 µM | > 50 µM | > 111 |  |  |  |
| 0.99 µM | 2.14 µM | CC[C@H]1O[C@@]2(C)[C@H](OC(C)=O)[C@@]1(C)O[C@@H](/C=C/C=C/C=C/c1oc(=O)cc(OC)c1C)[C@@H]2OC(=O)CCCCCOc1no[n+]([O-])c1S(=O)(=O)c1ccccc1 |  | > 50 µM | > 50 |  |  |  |
| 4.59 µM | 7.86 µM | CC[C@H]1O[C@@]2(C)[C@H](OC(C)=O)[C@@]1(C)O[C@@H](/C=C/C=C/C=C/c1oc(=O)cc(OC)c1C)[C@@H]2OC(=O)CCCC(=O)OCc1c(-c2ccc(Cl)cc2)no[n+]1[O-] | 2.42 µM | > 50 µM | > 10 |  |  |  |
| > 10 µM |  | CC[C@H]1O[C@@]2(C)[C@H](OC(C)=O)[C@@]1(C)O[C@@H](/C=C/C=C/C=C/c1oc(=O)cc(OC)c1C)[C@@H]2OC(=O)CCCC(=O)OCc1c(CSCC(=O)O)no[n+]1[O-] | 1.76 µM |  |  |  |  |  |
| 0.42 µM | 0.55 µM | CC[C@H]1O[C@@]2(C)[C@H](OC(C)=O)[C@@]1(C)O[C@@H](/C=C/C=C/C=C/c1oc(=O)cc(OC)c1C)[C@H]2OC(=O)CCC(=O)OCCCCOc1no[n+]([O-])c1S(=O)(=O)c1ccccc1 | 5.23 µM | > 50 µM | > 119 |  |  |  |
| 1.23 µM | 2.08 µM | CC[C@H]1O[C@@]2(C)[C@H](OC(C)=O)[C@@]1(C)O[C@@H](/C=C/C=C/C=C/c1oc(=O)cc(OC)c1C)[C@@H]2OC(=O)CCC(=O)OCC#CCOc1no[n+]([O-])c1S(=O)(=O)c1ccccc1 |  | > 50 µM | > 40 |  |  |  |
| > 10 µM |  | CC[C@H]1O[C@]2(C)C(OC(=O)CCCC(=O)OCc3c(CSCCCO)no[n+]3[O-])[C@H](/C=C/C=C/C=C/c3oc(=O)cc(OC)c3C)O[C@]1(C)[C@H]2OC(C)=O (single isomer, unassigned) | 2.02 µM |  |  |  |  |  |
| > 10 µM |  | CC[C@H]1O[C@@]2(C)[C@H](OC(C)=O)[C@@]1(C)O[C@@H](/C=C/C=C/C=C/c1oc(=O)cc(OC)c1C)[C@@H]2OC(=O)CCCC(=O)OCc1c(CSC[C@@H](NC(C)=O)C(=O)O)no[n+]1[O-] | 1.71 µM |  |  |  |  |  |
| 1.75 µM | 2.7 µM | CC[C@H]1O[C@@]2(C)[C@H](OC(C)=O)[C@@]1(C)O[C@@H](/C=C/C=C/C=C/c1oc(=O)cc(OC)c1C)[C@@H]2OC(=O)CCC(=O)OCCOCCOc1no[n+]([O-])c1S(=O)(=O)c1ccccc1 |  | > 50 µM | > 28 |  |  |  |
| 3.87 µM | 6.72 µM | CC[C@H]1O[C@@]2(C)[C@H](OC(C)=O)[C@@]1(C)O[C@@H](/C=C/C=C/C=C/c1oc(=O)cc(OC)c1C)[C@@H]2OC(=O)CCCC(=O)OCc1c(-c2ccc(OC)cc2)no[n+]1[O-] |  | > 50 µM | > 13 |  |  |  |
| 1.5 µM | 3.42 µM | CC[C@H]1O[C@@]2(C)[C@H](OC(C)=O)[C@@]1(C)O[C@@H](/C=C/C=C/C=C/c1oc(=O)cc(OC)c1C)[C@@H]2OC(=O)CCC(=O)ONC(=O)COCCOc1no[n+]([O-])c1S(=O)(=O)c1ccccc1 |  | > 50 µM | > 33 |  |  |  |
| 4.55 µM | 8.33 µM | CC[C@H]1O[C@@]2(C)[C@H](OC(C)=O)[C@@]1(C)O[C@@H](/C=C/C=C/C=C/c1oc(=O)cc(OC)c1C)[C@@H]2OC(=O)CCCC(=O)OCc1c(-c2ccc(C(F)(F)F)cc2)no[n+]1[O-] |  | > 50 µM | > 10 |  |  |  |
| 0.5 µM | 0.77 µM | CC[C@H]1O[C@@]2(C)[C@H](OC(C)=O)[C@@]1(C)O[C@@H](/C=C/C=C/C=C/c1oc(=O)cc(OC)c1C)[C@@H]2OC(=O)COCCOCCOc1no[n+]([O-])c1S(=O)(=O)c1ccccc1 |  | > 50 µM | > 100 |  |  |  |
| 5.72 µM | 7.16 µM | CC[C@H]1O[C@@]2(C)[C@H](OC(C)=O)[C@@]1(C)O[C@@H](/C=C/C=C/C=C/c1oc(=O)cc(OC)c1C)[C@@H]2OC(=O)CCCC(=O)OCc1c(-c2ccc(C)cc2)no[n+]1[O-] |  | > 50 µM | > 8 |  |  |  |
|  |  | N=C(N)NCCC[C@H](N)C(=O)O [ARGININE] | 1.31 µM |  |  |  |  |  |
| > 10 µM |  | CC[C@H]1O[C@@]2(C)[C@H](OC(C)=O)[C@@]1(C)O[C@@H](/C=C/C=C/C=C/c1oc(=O)cc(OC)c1C)[C@@H]2OC(=O)CCCCCCCCCCCCCOc1no[n+]([O-])c1S(=O)(=O)c1ccccc1 |  |  |  |  |  |  |
| 7.24 µM | > 10 µM | CC[C@H]1O[C@@]2(C)[C@H](OC(C)=O)[C@@]1(C)O[C@@H](/C=C/C=C/C=C/c1oc(=O)cc(OC)c1C)[C@@H]2OC(=O)CCCC(=O)OCc1c(-c2ccc(F)cc2)no[n+]1[O-] | 2.27 µM | > 50 µM | > 7 |  |  |  |
| 0.69 µM | 1.55 µM | CC[C@H]1O[C@@]2(C)[C@H](OC(C)=O)[C@@]1(C)O[C@@H](/C=C/C=C/C=C/c1oc(=O)cc(OC)c1C)[C@@H]2OC(=O)CCC(=O)ONC(=O)CCCOc1no[n+]([O-])c1S(=O)(=O)c1ccccc1 |  | > 50 µM | > 72 |  |  |  |
| 1.23 µM | 2.72 µM | CC[C@H]1O[C@@]2(C)[C@H](OC(C)=O)[C@@]1(C)O[C@@H](/C=C/C=C/C=C/c1oc(=O)cc(OC)c1C)[C@@H]2OC(=O)CCC(=O)ONC(=O)CCCCOc1no[n+]([O-])c1S(=O)(=O)c1ccccc1 |  | > 50 µM | > 40 |  |  |  |
| 5.88 µM | > 10 µM | CC[C@H]1O[C@]2(C)C(OC(=O)CCC(=O)OCc3ccc(Oc4no[n+]([O-])c4S(=O)(=O)c4ccccc4)cc3)[C@H](/C=C/C=C/C=C/c3oc(=O)cc(OC)c3C)O[C@]1(C)[C@H]2OC(C)=O (single isomer, unassigned) | 2.44 µM |  |  |  |  |  |
| 0.7 µM | 1.23 µM | CC[C@H]1O[C@@]2(C)[C@H](OC(C)=O)[C@@]1(C)O[C@@H](/C=C/C=C/C=C/c1oc(=O)cc(OC)c1C)[C@@H]2OC(=O)CCCCCCCOc1no[n+]([O-])c1S(=O)(=O)c1ccccc1 |  | > 50 µM | > 71 |  |  |  |
| 1.05 µM | 1.89 µM | CC[C@H]1O[C@@]2(C)[C@H](OC(C)=O)[C@@]1(C)O[C@@H](/C=C/C=C/C=C/c1oc(=O)cc(OC)c1C)[C@@H]2OC(=O)CCC(=O)ONC(=O)CCCCCOc1no[n+]([O-])c1S(=O)(=O)c1ccccc1 |  | > 50 µM | > 48 |  |  |  |
| > 10 µM |  | CC[C@H]1O[C@]2(C)C(OC(=O)CCC(=O)OCc3cccc(Oc4no[n+]([O-])c4S(=O)(=O)c4ccccc4)c3)[C@H](/C=C/C=C/C=C/c3oc(=O)cc(OC)c3C)O[C@]1(C)[C@H]2OC(C)=O (single isomer, unassigned) | 2.15 µM |  |  |  |  |  |

| Compound | IC50 [1] | IC50 [3] | Activity [2] | IC50 at 72 h [4] | selectivity ratio [5] | Activity [6] | Activity [7] | Activity [8] |
| --- | --- | --- | --- | --- | --- | --- | --- | --- |
| CC(=O)O[C@H]1C(=O)[C@@]2(C)[C@H]([C@H](OC(=O)c3ccccc3)[C@]3(O)C[C@H](OC(=O)[C@H](O)[C@@H](NC(=O)c4ccccc4)c4ccccc4)C(C)=C1C3(C)C)[C@]1(OC(C)=O)CO[C@@H]1C[C@@H]2O [PACLITAXEL] | 4.55 µM | 3.84 µM |  | 7.82 µM | 1.7 |  |  |  |
